Reference: article PMC3397457, “Preclinical Evaluation of Anticancer Efficacy and Pharmacological Properties of FBA-TPQ, a Novel Synthetic Makaluvamine Analog” (Marine Drugs, 2012)
Read-outs that look alike come from different tables or passages of the source.

Columns and labels:
HPAC cells = test: Annexin V apoptosis assay/flow cytometry, HPAC; type: cell-based, human; settings: 1 µM, 48 h
Description: The apoptotic cells were detected using a method reported previously. […] In HPAC cells, a 1 µM concentration of FBA-TPQ increased the apoptotic index two-fold higher than that seen in control cells (P < 0.01). […] In the Mia PaCa-2 cells, FBA-TPQ at 1 µM led to a three-fold increase in apoptosis (P < 0.01).
Following a similar protocol as above, cells in early and late stages of apoptosis were detected using an Annexin V-FITC apoptosis detection kit from BioVision (Mountain View, CA, USA), according to the manufacturer’s protocol. For apoptosis experiments, 2–3 × 10^5 cells were exposed to the test compound (0, 0.1, 0.5 and 1.0 µM) and incubated for 48 h prior to analysis. Cells were collected and washed with serum-free media. Cells were then re-suspended in 500 µL of Annexin V binding buffer followed by addition of 5 µL of Annexin V-FITC and 5 µL of propidium iodide (PI). The samples were incubated in the dark for 5 min at room temperature and analyzed with a Becton Dickinson FACSCalibur instrument (Ex = 488 nm; Em = 530 nm). Cells that were positive for Annexin V-FITC alone (early apoptosis) and Annexin V-FITC and PI (late apoptosis) were counted. The apoptotic index was calculated against the untreated control cells.

[1] = Plasma protein binding by micro-ultrafiltration; type: in vitro ADME; settings: pooled mouse plasma, 37 °C 1 h, read-out: bound to plasma proteins (converted)
Description: To determine the extent to which FBA-TPQ is bound by plasma proteins, pooled plasma samples were examined for their capacity to bind the compound at concentrations of 0.5 μM and 5 μM. FBA-TPQ was considerably bound to proteins in mouse plasma, with 72.32% ± 2.53%; and 77.78% ± 1.17% of the compound being bound to plasma proteins at concentrations of 0.5 μM and 5.0 μM, respectively. Extensive binding of a candidate compound to plasma proteins can impair its biodistribution and may therefore impact its therapeutic efficacy. However, compounds that are highly bound to proteins display longer half-lives, durations of action, and higher volumes of distribution.
The extent of binding to mouse plasma proteins by FBA-TPQ was determined using a micro-ultrafiltration system as previously described. FBA-TPQ was dissolved in methanol and added to pooled mouse plasma to yield final concentrations of 0.5 µM and 5.0 µM. Control solutions were prepared in methanol to account for non-specific binding of FBA-TPQ to the filter membranes. Duplicate preparations of each concentration were incubated at 37 °C for 1 h, before being placed into the sample reservoirs of Amicon Centrifree® ultrafiltration tubes (30 kDa exclusion; Millipore).

[2] = Pharmacokinetics and tissue distribution in BALB/c mice; type: in vivo; settings: for Vd: read-out: Vss
Description: To assess the disposition of FBA-TPQ in vivo, pharmacokinetic studies in BALB/c were conducted. The results of the mean plasma concentration-time curves of FBA-TPQ, and tissue concentration-time curves of FBA-TPQ, after intravenous or intraperitoneal injection in BALB/c mice are presented in Figure 5. Two-compartmental model (WinNonlin 6.0 Model 7, Pharsight Corporation: Mountain View, CA, USA, 2009) was used to analyze the data obtained following intravenous (iv) and intraperitoneal (ip) administration of the compound.
Female BALB/c (18–20 g) mice were purchased from Harlan Laboratories (Indianapolis, IN). All animals were fed with commercial diet and water ad libitum and were on an alternating 12 h light/dark cycle. The mice were randomly divided into groups of three, and were dosed either intravenously (5 mg/kg) or intraperitoneally (10 mg/kg) with FBA-TPQ in PEG 400: ethanol: saline (57.1%:14.3%:28.6%). Before dosing, and at 5, 15, 30, and 60 min, and 2, 4, 8, and 24 h after dosing, groups of animals (three/time point) were anesthetized, and blood was collected from the retro-orbital sinus into heparinized tubes. Plasma was obtained by centrifuging the blood samples at 14,000 rpm for 15 min. FBA-TPQ was then extracted from plasma and stored at −80 °C until analysis. The brain, heart, kidneys, liver, lungs, and spleen were also collected at the same time points during necropsy, blotted on Whatman No. 1 filter paper, trimmed of extraneous fat and connective tissue, weighed, and homogenized in phosphate-buffered saline. The resulting homogenates were stored at −80 °C until further processing and analysis.
The average FBA-TPQ concentrations in plasma and tissues at each of the time points following intravenous and intraperitoneal administrations were used for pharmacokinetic analyses using a one- or two-compartmental model, respectively. The following pharmacokinetic parameters were estimated using Phoenix WinNonlin 6.0 (Mountain View, CA, USA): area under the concentration-time curve (AUC, h·μg/mL), half-life (T½, h), maximum concentration (Cmax, μg/mL), time of the maximum concentration (Tmax, h), and clearance (CL, mL/h/kg), as applicable. Bioavailability (X) was calculated as X = [AUCip × doseiv]/[AUCiv × doseip].

[3] = female, mouse, brain, ip, 10 mg/kg
[4] = female, mouse, brain, iv, 5 mg/kg
[5] = female, mouse, heart, ip, 10 mg/kg
[6] = female, mouse, heart, iv, 5 mg/kg
[7] = female, mouse, kidneys, ip, 10 mg/kg
[8] = female, mouse, kidneys, iv, 5 mg/kg
[9] = female, mouse, liver, ip, 10 mg/kg
[10] = female, mouse, liver, iv, 5 mg/kg
[11] = female, mouse, lungs, ip, 10 mg/kg
[12] = female, mouse, lungs, iv, 5 mg/kg
[13] = female, mouse, plasma, ip, 10 mg/kg
[14] = female, mouse, plasma, iv, 5 mg/kg
[15] = female, mouse, spleen, ip, 10 mg/kg
[16] = female, mouse, spleen, iv, 5 mg/kg

With O=C1C(NCc2ccc(F)cc2)=CC2=NCCc3c[nH]c1c32 [FBA-TPQ, 7-(4-fluorobenzylamino)-1,3,4,8-tetrahydropyrrolo[4,3,2-de]quinolin-8(1H)-one] the “increase of apoptotic index vs control cells” value (HPAC cells) was “two-fold”, the fraction unbound at 1 h, 0.5 µM ([1]; 0.5 μM) was 0.277 and the fraction unbound at 1 h, 5 µM ([1]; 5.0 μM) was 0.222. The “detectability in mouse plasma” value ([2]; 4 h after iv injection, 5 mg/kg) was “no longer detectable”, the Vss ([2]; brain, ip, 10 mg/kg) was 4.10 mL/g and the AUC [2, 3] was 62.3 ng·h/mL. For the same molecule, the half-life [2, 3] was 110 min, the AUC [2, 4] was 138 ng·h/mL and the half-life [2, 4] was 15.1 min. The clearance ([2]; female, mouse, brain, iv, 5 mg/kg, read-out: Cl (converted)) was 575 mL/min/kg, the Vd [2, 4] was 18.7 L/kg and the AUC [2, 5] was 2360 ng·h/mL. For the same molecule, the half-life [2, 5] was 32.5 min, the AUC [2, 6] was 2000 ng·h/mL and the half-life [2, 6] was 30.1 min. The clearance ([2]; female, mouse, heart, iv, 5 mg/kg, read-out: Cl (converted)) was 41.2 mL/min/kg, the Vd [2, 6] was 1.77 L/kg and the AUC [2, 7] was 14700 ng·h/mL. For the same molecule, the half-life [2, 7] was 94.8 min, the AUC [2, 8] was 11500 ng·h/mL and the half-life [2, 8] was 15.1 min. The clearance ([2]; female, mouse, kidneys, iv, 5 mg/kg, read-out: Cl (converted)) was 7.27 mL/min/kg, the Vd [2, 8] was 0.491 L/kg and the AUC [2, 9] was 1850 ng·h/mL. The half-life [2, 9] was 7.62 min, the AUC [2, 10] was 949 ng·h/mL and the half-life [2, 10] was 30.6 min. It also gave a clearance ([2]; female, mouse, liver, iv, 5 mg/kg, read-out: Cl (converted)) of 78.3 mL/min/kg, a Vd [2, 10] of 3.34 L/kg and an AUC [2, 11] of 5710 ng·h/mL. For the same molecule, the half-life [2, 11] was 21.8 min, the AUC [2, 12] was 4020 ng·h/mL and the half-life [2, 12] was 30.1 min. For the same molecule, the clearance ([2]; female, mouse, lungs, iv, 5 mg/kg, read-out: Cl (converted)) was 20.6 mL/min/kg, the Vd [2, 12] was 7.79 L/kg and the bioavailability ([2]; female, mouse, plasma, intraperitoneal, based on AUC values, ip 10 mg/kg vs iv 5 mg/kg) was 28.9%. The AUC [2, 13] was 338 ng·h/mL, the half-life [2, 13] was 13.1 min and the concentration at 5 min ([2]; female, mouse, plasma, ip, 10 mg/kg, at 5 min) was 542 ng/mL. For the same molecule, the concentration at 2 h ([2]; female, mouse, plasma, ip, 10 mg/kg, at 2 h) was 40.2 ng/mL, the AUC [2, 14] was 583 ng·h/mL and the half-life [2, 14] was 14.9 min. For the same molecule, the Vd [2, 14] was 18.7 L/kg, the clearance ([2]; female, mouse, plasma, single bolus iv dose 5 mg/kg, read-out: clearance rate (converted)) was 141 mL/min/kg and the AUC [2, 15] was 6500 ng·h/mL. The half-life [2, 15] was 104 min, the AUC [2, 16] was 2330 ng·h/mL and the half-life [2, 16] was 4.86 min. It also gave a clearance ([2]; female, mouse, spleen, iv, 5 mg/kg, read-out: Cl (converted)) of 33 mL/min/kg, a Vd [2, 16] of 1.27 L/kg and a Cl ([2]; heart, ip, 10 mg/kg) of 64.2 mL/min/kg. For the same molecule, the Vss ([2]; heart, ip, 10 mg/kg) was 2.19 mL/g, the “order of highest overall tissue concentrations” value ([2]; ip, 10 mg/kg) was “kidneys > spleen > lungs > liver > heart > brain” and the concentration in plasma ([2]; ip, 10 mg/kg, 4 h after administration) was “undetectable levels”. The “order of highest overall concentrations in the tissues examined” value ([2]; iv, 5 mg/kg) was “kidneys > lungs > heart > spleen > plasma ≈ liver > brain”, the Cl ([2]; kidneys, ip, 10 mg/kg) was 13.7 mL/min/kg and the Vss ([2]; kidneys, ip, 10 mg/kg) was 0.801 mL/g. It also gave a Cl ([2]; liver, ip, 10 mg/kg) of 64.2 mL/min/kg, a Cl ([2]; lungs, ip, 10 mg/kg) of 31.3 mL/min/kg and a Vss ([2]; lungs, ip, 10 mg/kg) of 10.32 mL/g. For the same molecule, the Cl ([2]; plasma, ip, 10 mg/kg) was 330 mL/min/kg, the Vss ([2]; plasma, ip, 10 mg/kg) was 21.8 mL/g and the Cl ([2]; plasma, iv, 5 mg/kg) was 141 mL/min/kg. The Cl ([2]; spleen, ip, 10 mg/kg) was 15.5 mL/min/kg and the Vss ([2]; spleen, ip, 10 mg/kg) was 0.78 mL/g.
